# Laboratory results taken from ChEMBL document CHEMBL3045415, “Synthesis, characterization and antimicrobial activities of some novel bis-chalcones” (2012).
# Active and inactive are the calls of the source. The calls are words filed in the database; no cut-off is given here.
# Experiments:
# Type in all cases: functional
# [1] = system: Escherichia coli; test: Antibacterial activity against Escherichia coli ATCC 35218 after 24 hr by disk diffusion method; details: ATCC 35218, 24 h
# [2] = system: Staphylococcus aureus; test: Antibacterial activity against Staphylococcus aureus ATCC 29737 at 400 ug/ml after 24 hr by cup-plate agar method; details: for zone of inhibition at 400 µg/mL: ATCC 29737, 24 h, read-out: IZ
# [3] = system: Candida albicans; test: Antifungal activity against Candida albicans ATCC 10231 at 400 ug/ml after 24 hr by cup-plate agar method; details: for zone of inhibition at 400 µg/mL: ATCC 10231, 24 h, read-out: IZ
# [4] = system: Staphylococcus aureus; test: Antibacterial activity against Staphylococcus aureus ATCC 29737 after 24 hr by disk diffusion method; details: ATCC 29737, 24 h
# [5] = system: Candida albicans; test: Antifungal activity against Candida albicans ATCC 10231 after 24 hr by disk diffusion method; details: ATCC 10231, 24 h
# [6] = system: Escherichia coli; test: Antibacterial activity against Escherichia coli ATCC 35218 at 400 ug/ml after 24 hr by cup-plate agar method; details: for zone of inhibition at 400 µg/mL: ATCC 35218, 24 h, read-out: IZ
molecule,measurement,setting,value
O=C(/C=C/c1ccccc1)c1ccc(C(=O)/C=C/c2ccccc2)cc1,MIC,[1],200 µg/mL
same,zone of inhibition at 400 µg/mL,[2],10 mm
same,zone of inhibition at 400 µg/mL,[3],17 mm
same,MIC,[4],200 µg/mL
same,MIC,[5],200 µg/mL
same,zone of inhibition at 400 µg/mL,[6],13 mm
COc1ccccc1/C=C/C(=O)c1ccc(C(=O)/C=C/c2ccccc2OC)cc1,inhibition zone (IZ),[2],inactive
same,zone of inhibition at 400 µg/mL,[3],9 mm
same,MIC,[4],300 µg/mL
same,inhibition zone (IZ),[6],inactive
GENTAMICIN,inhibition zone (IZ),[2],23 mm
same,inhibition zone (IZ),[6],24 mm
O=C(/C=C/c1ccc(Br)cc1)c1ccc(C(=O)/C=C/c2ccc(Br)cc2)cc1,MIC,[1],50 µg/mL
same,zone of inhibition at 400 µg/mL,[2],9 mm
same,inhibition zone (IZ),[3],inactive
same,MIC,[5],200 µg/mL
same,zone of inhibition at 400 µg/mL,[6],30 mm
COc1cccc(/C=C/C(=O)c2ccc(C(=O)/C=C/c3cccc(OC)c3)cc2)c1,inhibition zone (IZ),[2],inactive
same,inhibition zone (IZ),[3],inactive
same,inhibition zone (IZ),[6],inactive
O=C(/C=C/c1ccc([N+](=O)[O-])cc1)c1ccc(C(=O)/C=C/c2ccc([N+](=O)[O-])cc2)cc1,MIC,[1],50 µg/mL
same,zone of inhibition at 400 µg/mL,[2],10 mm
same,zone of inhibition at 400 µg/mL,[3],25 mm
same,MIC,[4],50 µg/mL
same,MIC,[5],200 µg/mL
same,zone of inhibition at 400 µg/mL,[6],13 mm
O=C(/C=C/c1ccccc1O)c1ccc(C(=O)/C=C/c2ccccc2O)cc1,MIC,[1],50 µg/mL
same,zone of inhibition at 400 µg/mL,[2],13 mm
same,inhibition zone (IZ),[3],inactive
same,MIC,[5],100 µg/mL
same,zone of inhibition at 400 µg/mL,[6],30 mm
O=C(/C=C/c1ccccc1[N+](=O)[O-])c1ccc(C(=O)/C=C/c2ccccc2[N+](=O)[O-])cc1,MIC,[1],100 µg/mL
same,zone of inhibition at 400 µg/mL,[2],15 mm
same,zone of inhibition at 400 µg/mL,[3],15 mm
same,MIC,[4],100 µg/mL
same,MIC,[5],100 µg/mL
same,zone of inhibition at 400 µg/mL,[6],21 mm
O=C(/C=C/c1cccc([N+](=O)[O-])c1)c1ccc(C(=O)/C=C/c2cccc([N+](=O)[O-])c2)cc1,inhibition zone (IZ),[2],inactive
same,inhibition zone (IZ),[3],inactive
same,inhibition zone (IZ),[6],inactive
O=C(/C=C/c1cccc(Br)c1)c1ccc(C(=O)/C=C/c2cccc(Br)c2)cc1,MIC,[1],50 µg/mL
same,zone of inhibition at 400 µg/mL,[2],10 mm
same,inhibition zone (IZ),[3],inactive
same,MIC,[5],200 µg/mL
same,zone of inhibition at 400 µg/mL,[6],30 mm
O=C(/C=C/c1cccc(Cl)c1)c1ccc(C(=O)/C=C/c2cccc(Cl)c2)cc1,MIC,[1],300 µg/mL
same,inhibition zone (IZ),[2],inactive
same,zone of inhibition at 400 µg/mL,[3],12 mm
same,MIC,[4],300 µg/mL
same,zone of inhibition at 400 µg/mL,[6],13 mm
COc1ccc(/C=C/C(=O)c2ccc(C(=O)/C=C/c3ccc(OC)c(OC)c3)cc2)cc1OC,MIC,[1],100 µg/mL
same,zone of inhibition at 400 µg/mL,[2],11 mm
same,inhibition zone (IZ),[3],inactive
same,MIC,[5],200 µg/mL
same,zone of inhibition at 400 µg/mL,[6],30 mm
O=C(/C=C/c1ccccc1Cl)c1ccc(C(=O)/C=C/c2ccccc2Cl)cc1,MIC,[1],100 µg/mL
same,zone of inhibition at 400 µg/mL,[2],10 mm
same,zone of inhibition at 400 µg/mL,[3],12 mm
same,MIC,[4],200 µg/mL
same,MIC,[5],100 µg/mL
same,zone of inhibition at 400 µg/mL,[6],27 mm
O=C(/C=C/c1ccc(Cl)cc1)c1ccc(C(=O)/C=C/c2ccc(Cl)cc2)cc1,MIC,[1],100 µg/mL
same,zone of inhibition at 400 µg/mL,[2],10 mm
same,zone of inhibition at 400 µg/mL,[3],12 mm
same,MIC,[4],200 µg/mL
same,MIC,[5],200 µg/mL
same,zone of inhibition at 400 µg/mL,[6],23 mm
C[C@@H]1[C@H](O)[C@@H](C)/C=C/C=C/C=C/C=C/C=C/C=C/C=C/[C@H](O[C@@H]2O[C@H](C)[C@@H](O)[C@H](N)[C@@H]2O)C[C@@H]2O[C@](O)(C[C@@H](O)C[C@@H](O)[C@H](O)CC[C@@H](O)C[C@@H](O)CC(=O)O[C@H]1C)C[C@H](O)[C@H]2C(=O)O [AMPHOTERICIN B],zone of inhibition at 400 µg/mL,[3],21 mm
COc1ccc(/C=C/C(=O)c2ccc(C(=O)/C=C/c3ccc(OO)cc3)cc2)cc1,inhibition zone (IZ),[2],inactive
same,zone of inhibition at 400 µg/mL,[3],22 mm
same,MIC,[4],300 µg/mL
same,inhibition zone (IZ),[6],inactive
